In series [1] the test system is Freshly isolated mouse hepatocytes. Briefly: Hepatocyte fatty acid metabolism, time course with alkyne or natural fatty acids. The format is cell-based. Conditions: 50 µM fatty acid, all labeling times; fluorescent click analysis. The method, then:
(§1) Alkyne lipid precursors are supplemented to cell culture where they become incorporated into cellular lipids, e.g. into phosphatidylcholine (PC). These are extracted and reacted with the fluorogenic dye 3-azido-7-hydroxycoumarin in the presence of copper(I). […] (a) Alkyne-Bodipy at concentrations as indicated was reacted with either 60 µM 3-azido-7-hydroxycoumarin and 2mM Cu(I)BF4 (+) or incubated in ethanol for 3h at 42°C (-). The samples were separated by TLC using hexane/ethyl acetate 1/1 as the mobile phase. […] (c) Plot of the integrated fluorescence intensity of lane 6 of panel b (left) and from the corresponding one second exposure before base treatment. […] The cholesterol ester of alkyne-oleate at the indicated concentrations was subjected to detection reaction, TLC separation and fluorescence imaging using the standard protocol. […] (b) Quantification of integrated fluorescence of panel a. […] Signals were quantified either by scraping, extraction and scintillation counting (panel b, ^3H-oleate) or by integration of signals form the fluorescence image (panel b, alkyne-oleate). […] Lipids extracts were dried and subjected to detection reaction, TLC separation and fluorescence imaging using the standard protocol. […] (b) Quantification of the signals in panel a. […]

The subject of series [2] is Drosophila melanogaster L3 larvae. Briefly: Alkyne fatty acid labeling of opened single L3 larvae. The following applies: 50 µM, 30 min. The method, then:
as §1

Series [3] relates to HuH7 hepatoma cells. Briefly: Pulse chase labeling with alkyne fatty acids. It is filed as cell-based. The method, then:
Alkyne lipid precursors are supplemented to cell culture where they become incorporated into cellular lipids, e.g. into phosphatidylcholine (PC). These are extracted and reacted with the fluorogenic dye 3-azido-7-hydroxycoumarin in the presence of copper(I). […] (a) Alkyne-Bodipy at concentrations as indicated was reacted with either 60 µM 3-azido-7-hydroxycoumarin and 2mM Cu(I)BF4 (+) or incubated in ethanol for 3h at 42°C (-). The samples were separated by TLC using hexane/ethyl acetate 1/1 as the mobile phase. The dried TLC plate was first imaged with excitation at 485 nm and emission at >520 nm (left panel, Bodipy channel), followed by treatment with 4% Hünig's base in hexane and imaging with excitation at 420 nm and emission at 484-504 nm (right panel, Coumarin channel). (b, c) Influence of dye concentration and base treatment. A172 cells were grown in a 15 cm dish and labeled with 100 µM alkyne-palmitate/alkyne-oleate 1/1 for 2 h. Lipids were extracted and dissolved in 2 ml CHCl3. 2 µl of this extract were reacted with 2 mM Cu(I)BF4 and the indicated concentration of 3-azido-7-hydroxycoumarin in 37 µl ethanol/MeCN/CHCl3 24/6/7 at 42°C for 3 h. Samples were separated by TLC and imaged (b) before (right panel) and after (left panel) treatment with 4%-Hünig's base in hexane for the times indicated. (c) Plot of the integrated fluorescence intensity of lane 6 of panel b (left) and from the corresponding one second exposure before base treatment. […] The cholesterol ester of alkyne-oleate at the indicated concentrations was subjected to detection reaction, TLC separation and fluorescence imaging using the standard protocol. […] (b) Quantification of integrated fluorescence of panel a. […] Signals were quantified either by scraping, extraction and scintillation counting (panel b, ^3H-oleate) or by integration of signals form the fluorescence image (panel b, alkyne-oleate). […] Lipids extracts were dried and subjected to detection reaction, TLC separation and fluorescence imaging using the standard protocol. […] (b) Quantification of the signals in panel a. […]

Series [4] has as its system Freshly isolated mouse hepatocytes. Kind of series: Comparison of 3H-oleate and alkyne-oleate labeling (click/TLC fluorescence vs scintillation counting). The format is cell-based. The method, then: as §1
In series [5] the test system is A-172 cells. Kind of series: Alkyne-sphinganine labeling of cultivated cells, click analysis. It is filed as cell-based. Conditions: cultivated 1 h with the compound. The method, then:
as §1

Molecules are shown by their SMILES. Like-named read-outs stand apart in the source and are kept apart here.

On to `C#CCCCCCCCCCCCCCCC(=O)O` [alkyne-palmitate, 16-Heptadecynoic acid], for which the “incorporation into TAG compared to PC” value in series [1] was “equal distribution between PC and TAG”. The “incorporation into PE” value in series [2] is “much less”. The “fate of label after chase” value in series [3] (3 min pulse, 30 min chase) is “metabolized to the final products PC, PE, TAG and CE”. Moreover, the “distribution of label after pulse” value in series [3] (3 min pulse, no chase) was “much of the fatty acids were found as the free substance, or in biosynthetic intermediates such as PA and DAG”.

`C#CCCCCCCC/C=C\CCCCCCCC(=O)O` [alkyne-oleate, Nonadec-9-cis-en-18-ynoic acid]: in series [4], the “amount of label in neutral lipids” value turned out to be 49%. In addition, the “incorporation into PE” value in series [2] is “large amounts”. Further, the “fate of label after chase” value in series [3] was “metabolized to the final products PC, PE, TAG and CE”.

Consider `C#CCCCCCCCCCCCCC[C@@H](O)[C@@H](N)CO` [alkyne-sphinganine, (2S,3R)-2-Aminooctadec-17-yn-1,3-diol], for which the “labeling of cellular lipids” value in series [5] is “strong labeling of ceramide and other sphingolipids”.

The record behind these values is patent EP2680005A1, “Lipid analysis” (Rheinische Friedrich-Wilhelms-Universität Bonn, priority 2012, dated 2014).
